ChEMBL document CHEMBL5338783, “Discovery of an Anti-TNF-α 9-mer Peptide from a T7 Phage Display Library for the Treatment of Inflammatory Bowel Disease” (J Med Chem, 2023)
Activity calls are given as the source filed them. No cut-off for these calls is given here. Peptide text beside a SMILES is read from it.

Legend:
Tumor necrosis factor = Tumor necrosis factor (Homo sapiens, UniProt P01375); assay: Binding affinity to recombinant TNF-alpha (unknown origin) assessed as dissociation constant incubated for 10 mins by MST assay
Chain of Tumor necrosis factor (P01375 whole entry): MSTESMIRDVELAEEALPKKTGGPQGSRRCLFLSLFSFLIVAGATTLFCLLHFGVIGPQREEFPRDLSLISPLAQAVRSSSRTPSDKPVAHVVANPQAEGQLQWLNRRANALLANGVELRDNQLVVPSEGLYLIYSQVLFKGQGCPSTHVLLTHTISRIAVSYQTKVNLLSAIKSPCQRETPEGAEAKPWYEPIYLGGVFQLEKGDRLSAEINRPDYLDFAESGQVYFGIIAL

[1] = biological target: T1, Tumor necrosis factor receptor superfamily member 1A (Homo sapiens) (UniProt P19438); assay: Binding affinity to TNFR1 (unknown origin) at 488.3 to 500 uM incubated for 10 mins by MST assay; details: dose 488.3-500 µM
T1 sequence (whole entry): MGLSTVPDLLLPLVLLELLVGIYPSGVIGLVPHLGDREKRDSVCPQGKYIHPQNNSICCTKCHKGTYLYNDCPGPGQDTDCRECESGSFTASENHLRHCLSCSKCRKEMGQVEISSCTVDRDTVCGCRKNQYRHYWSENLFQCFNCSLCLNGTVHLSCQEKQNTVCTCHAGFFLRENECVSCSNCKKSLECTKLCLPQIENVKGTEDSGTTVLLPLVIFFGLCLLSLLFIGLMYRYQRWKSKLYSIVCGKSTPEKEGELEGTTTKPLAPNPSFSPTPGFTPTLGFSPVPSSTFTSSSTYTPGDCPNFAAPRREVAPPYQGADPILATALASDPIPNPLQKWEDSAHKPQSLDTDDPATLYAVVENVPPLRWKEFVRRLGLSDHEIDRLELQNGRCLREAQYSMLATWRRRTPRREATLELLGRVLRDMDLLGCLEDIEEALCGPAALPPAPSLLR

[2] = biological target: T2, Tumor necrosis factor receptor superfamily member 1B (Homo sapiens) (UniProt P20333); assay: Inhibition of TNF-alpha (unknown origin) binding to TNFR2 by SPR analysis
T2 sequence (whole entry): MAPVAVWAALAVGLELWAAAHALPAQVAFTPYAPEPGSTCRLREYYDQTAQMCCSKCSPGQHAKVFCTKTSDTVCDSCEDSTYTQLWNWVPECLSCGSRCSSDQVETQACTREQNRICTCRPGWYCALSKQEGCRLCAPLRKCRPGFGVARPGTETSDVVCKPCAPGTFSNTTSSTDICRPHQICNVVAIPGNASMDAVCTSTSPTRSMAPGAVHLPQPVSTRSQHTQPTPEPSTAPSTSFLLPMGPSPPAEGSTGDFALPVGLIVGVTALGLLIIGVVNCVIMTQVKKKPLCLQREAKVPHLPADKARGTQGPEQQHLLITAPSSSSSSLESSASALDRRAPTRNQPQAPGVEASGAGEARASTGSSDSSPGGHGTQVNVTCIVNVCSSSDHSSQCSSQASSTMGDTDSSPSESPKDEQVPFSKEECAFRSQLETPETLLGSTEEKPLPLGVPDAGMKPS

RAW264.7 [3] = assay: Antiinflammatory activity in mouse RAW264.7 cells assessed as decrease in LPS-stimulated IL-6 mRNA level at 25 to 100 uM incubated for 3 hrs by RT-qPCR analysis; type: functional, cell-based; details: dose 25-100 µM
RAW264.7 [4] = assay: Antiinflammatory activity in mouse RAW264.7 cells assessed as decrease in LPS-stimulated IL-6 protein expression incubated for 3 hrs by flow cytometry; type: functional, cell-based; details: dose 25-100 µM
RAW264.7 [5] = assay: Antiinflammatory activity in mouse RAW264.7 cells assessed as decrease in LPS-stimulated TNF-alpha protein expression incubated for 3 hrs by flow cytometry; type: functional, cell-based; details: dose 25-100 µM
RAW264.7 [6] = assay: Antiinflammatory activity in mouse RAW264.7 cells assessed as decrease in LPS-stimulated IFN-gamma protein expression incubated for 3 hrs by flow cytometry; type: functional, cell-based; details: dose 25-100 µM
RAW264.7 [7] = assay: Antiinflammatory activity in LPS-stimulated mouse RAW264.7 cells assessed as inhibition of p65 phosphorylation incubated for 3 hrs by Western blot analysis; type: functional, cell-based; details: dose 25-100 µM
RAW264.7 [8] = assay: Antiinflammatory activity in LPS-stimulated mouse RAW264.7 cells assessed as inhibition of IkappaBalpha phosphorylation incubated for 3 hrs by Western blot analysis; type: functional, cell-based; details: dose 25-100 µM
RAW264.7 [9] = assay: Antiinflammatory activity in LPS-stimulated mouse RAW264.7 cells assessed as inhibition of JNK1/2 phosphorylation incubated for 3 hrs by Western blot analysis; type: functional, cell-based; details: dose 25-100 µM
RAW264.7 [10] = assay: Antiinflammatory activity in LPS-stimulated mouse RAW264.7 cells assessed as inhibition of ERK1/2 phosphorylation incubated for 3 hrs by Western blot analysis; type: functional, cell-based; details: dose 25-100 µM
BMDM [11] = assay: Antiinflammatory activity in mouse BMDM cells assessed as decrease in LPS-stimulated TNF-alpha mRNA level incubated for 3 hrs by RT-qPCR analysis; type: functional, cell-based; details: dose 25-100 µM
BMDM [12] = assay: Antiinflammatory activity in LPS-stimulated mouse BMDM cells assessed as inhibition of NF-kappaB signalling pathway incubated for 3 hrs by Western blot analysis; type: functional, cell-based; details: dose 25-100 µM
RAW264.7 [13] = assay: Disruption of NF-kappaB/p65 nuclear import in LPS-stimulated mouse RAW264.7 cells preincubated for 30 mins followed by LPS stimulation measured after 3 hrs by immunofluorescence based microscopy; type: functional, cell-based
RAW264.7 [14] = assay: Cytotoxicity against mouse RAW264.7 cells upto 1000 uM; type: toxicity, cell-based; details: raw264.7, 1000 µM
Mus musculus [15] = assay: Anti-colitis activity against DSS-induced acute colitis in C57BL/6 mouse model assessed as protection of body weight loss at 0.5 to 1 mg/kg, ip daily for 7 days; type: functional, organism-based; details: dose 0.5-1 mg/kg, time 7.0 day
Mus musculus [16] = assay: Anti-colitis activity against DSS-induced acute colitis in C57BL/6 mouse model assessed as reduction in colonic tissue damage at 0.5 to 1 mg/kg, ip daily for 7 days by H and E staining based analysis; type: functional, organism-based; details: dose 0.5-1 mg/kg, time 7.0 day
Mus musculus [17] = assay: Anti-colitis activity against DSS-induced acute colitis in C57BL/6 mouse model assessed as increase in spleen index at 0.5 to 1 mg/kg, ip daily for 7 days; type: functional, organism-based; details: dose 0.5-1 mg/kg, time 7.0 day
Mus musculus [18] = assay: Anti-colitis activity against DSS-induced acute colitis in C57BL/6 mouse model assessed as […] in IFN-gamma mRNA level at 0.5 to 1 mg/kg, ip daily for 7 days by RT-qPCR analysis; type: functional, organism-based; details: dose 0.5-1 mg/kg, time 7.0 day
Mus musculus [19] = assay: Anti-colitis activity against DSS-induced acute colitis in C57BL/6 mouse model assessed as […] in IL-6 mRNA level at 0.5 to 1 mg/kg, ip daily for 7 days by RT-qPCR analysis; type: functional, organism-based; details: dose 0.5-1 mg/kg, time 7.0 day
Mus musculus [20] = assay: Anti-colitis activity against DSS-induced acute colitis in C57BL/6 mouse model assessed as reduction in colon length at 0.5 to 1 mg/kg, ip daily for 11 days; type: functional, organism-based; details: dose 0.5-1 mg/kg, time 11.0 day
Mus musculus [21] = assay: Anti-colitis activity against DSS-induced acute colitis in C57BL/6 mouse model assessed as reduction in goblet cell depletion in colon at 0.5 to 1 mg/kg, ip daily for 11 days by H and E staining based analysis; type: functional, organism-based; details: dose 0.5-1 mg/kg, time 11.0 day
Mus musculus [22] = assay: Anti-colitis activity against DSS-induced acute colitis in C57BL/6 mouse model assessed as increase in body weight value at 1 mg/kg, ip daily for 7 days; type: functional; details: time 7 day
Mus musculus [23] = assay: Anti-colitis activity against DSS-induced acute colitis in C57BL/6 mouse model assessed as decrease in disease activity index at 1 mg/kg, ip daily for 7 days; type: functional; details: time 7 day
Mus musculus [24] = assay: Antiinflammatory activity against DSS-induced acute colitis in C57BL/6 mouse model assessed as decrease in p38 phosphorylation in colon tissue administered intraperitoneally daily for 7 days by Western blot analysis; type: functional, organism-based; details: dose 0.5-1 mg/kg, route ip, time 7.0 day
Mus musculus [25] = assay: Antiinflammatory activity against DSS-induced acute colitis in C57BL/6 mouse model assessed as decrease in JNK1/2 phosphorylation in colon tissue administered intraperitoneally daily for 7 days by Western blot analysis; type: functional, organism-based; details: dose 0.5-1 mg/kg, route ip, time 7.0 day

`C[C@H](N)C(=O)N[C@@H](CS)C(=O)N[C@@H](Cc1cnc[nH]1)C(=O)N[C@@H](C)C(=O)N[C@@H](Cc1c[nH]c2ccccc12)C(=O)N[C@@H](C)C(=O)N1CCC[C@H]1C(=O)N[C@H](C(=O)N[C@@H](CCCNC(=N)N)C(=O)O)[C@@H](C)O` (H-ACHAWAPTR-OH) was tested, and the Kd (Tumor necrosis factor) was 5.14 µM, the Activity [1] was “inactive” and the inhibition [2] was “Active”. For the same molecule, the Activity (RAW264.7 [3]) was “Dose-Dependent Effect”, the Activity (RAW264.7 [4]) was “Dose-Dependent Effect” and the Activity (RAW264.7 [5]) was “Dose-Dependent Effect”. The Activity (RAW264.7 [6]) was “Dose-Dependent Effect”, the Activity (RAW264.7 [7]) was “Dose-Dependent Effect” and the Activity (RAW264.7 [8]) was “Dose-Dependent Effect”. The Activity (RAW264.7 [9]) was “Dose-Dependent Effect”, the Activity (RAW264.7 [10]) was “Dose-Dependent Effect” and the Activity (BMDM [11]) was “Dose-Dependent Effect”. For the same molecule, the Activity (BMDM [12]) was “Dose-Dependent Effect”, the Activity (RAW264.7 [13]) was “Dose-Dependent Effect” and the Activity (RAW264.7 [14]) was “Non-Toxic”. For the same molecule, the Activity (Mus musculus [15]) was “Active”, the Activity (Mus musculus [16]) was “Active” and the Activity (Mus musculus [17]) was “Active”. The Activity (Mus musculus [18]) was “Active”, the Activity (Mus musculus [19]) was “Active” and the Activity (Mus musculus [20]) was “Active”. The Activity (Mus musculus [21]) was “Active”, the Activity (Mus musculus [22]) was 0.24 and the Activity (Mus musculus [23]) was -1.25. The Activity (Mus musculus [24]) was “Dose-Dependent Effect” and the Activity (Mus musculus [25]) was “Dose-Dependent Effect”.
